In US12162850B2, “Formulations” (Betagenon AB, priority 2019, dated 2024):

Legend:
[1] = Single dose oral pharmacokinetic studies in rabbits; format: in vivo, male New Zealand White rabbits; conditions: for AUCextrap / AUC(0-inf) / AUC(0-t) / Cmax / MRT last / Tmax / half-life: 90 mg/kg b.w. oral single dose
Method: The studies detailed below (and referred to as Examples 2 to 8) were conducted to provide comparative single dose oral pharmacokinetics data for Compound 1, as well as sodium and potassium salts of that compound, using non-coated and enteric-coated capsules in male New Zealand White rabbits.
Compound 1 was made using the process described in WO 2011/004162 and milled as described for Example 1c. The non-coated or enteric coated gelatin capsules were individually filled with 180 mg of dry-milled Compound 1 together with accompanying excipients as indicated. Both capsule types were filled with Compound 1 together with 1.8 mg of sodium docusate, 0.18 mg of PVP K30 and 9 mg of mannitol.
Similarly, Compound 2, non-coated or enteric coated gelatin capsules were individually filled with 180 mg of dry-milled Compound 2 (as obtained in Example 1f) together with 1.8 mg of sodium docusate, 0.18 mg of PVP K30 and 9 mg of mannitol.
For Compound 3, non-coated or enteric coated gelatin capsules were individually filled with 90 mg of dry-milled Compound 3 (as obtained in Example 1i) together with 0.90 mg of sodium docusate, 0.09 mg of PVP K30 and 4.50 mg of mannitol.
40 mL of the 2% w/v methyl cellulose solution was added to a 250 mL conical flask together with 10 g of 2 mm glass beads, and vigorously stirred. Compound 1 (720 mg) was slowly added to the solution and the mixture was with continuously stirred for 1 h. The homogenate was transferred to separate flask and its pH recorded. The suspension formulation was prepared before administration to the animals.
Adult healthy male New Zealand white rabbits aged approximately 2 to 3 months old were used for experimentation after 7 days of acclimatization.
To dose the filled capsules, a soft plastic dosing tube was used. The filled capsule was inserted into the dosing tube so that the short end of the capsule protrudes slightly from the tip of the tube. The tip of the capsule was dipped in mineral oil to aid swallowing.
To dose the suspension, an infant feeding tube was used. The feeding tube was inserted through the mouth of the rabbit to the oesophagus and the stomach, and ascertained that it has not been placed in the trachea before dosing to the animals. The suspension of the Compound 1 was administered through the feeding tube. After the administration of the suspension, drinking water of approximately 2.0-2.5 mL was administered to flush out the contents in the feeding tube.
The animals were restrained in a rabbit restrainer and blood samples (400-500 μL/time point) were collected via the central ear artery at 0.16, 0.25, 0.50, 1.0, 2.0, 4.0, 6.0, 8.0, 24.0, 48.0 and 72 hours post-dosing. Collected blood specimens were centrifuged at 4000 or 6000 rpm, 4° C. for 10 minutes and plasma samples were separated and stored at −80° C. until analysis.
Concentrations of the analyte of Compound 1 in New Zealand white rabbits was determined using an API 3200 Q-trap LC-MS/MS system.
Chromatographic separation was achieved on Zorbax C18, 50×4.6 mm, 5 μm column with methanol-0.1% formic acid as mobile phase with gradient elution. The flow rate was set at 1.0 mL min^−1. Detection was accomplished by a triple-quadrupole tandem mass spectrometer in multiple-reaction monitoring (MRM) scanning via electrospray ionization source, applied in the positive mode. The optimised mass transition ion-pairs for quantitation were m/z 379.999→125.000 for the compound 1 and m/z 376.165→165.00 for the ISD (Haloperidol). Calibration plots were linear over the range of 11.062 to 20594.820 ng/mL.
The data of plasma concentration to respective time points for the analyte Compound 1 were used for the pharmacokinetic analysis. Pharmacokinetic analysis was performed using non-compartmental analysis (NCA) module of Phoenix WinNonlin 6.3 software to determine the following pharmacokinetic parameters: • Cmax • Tmax • AUC0-t • AUC0-∞ • T1/2 • MRT […]

[2] = Particle size analysis of dry-milled products (laser diffraction, Shimadzu SALD-2300); format: physicochemical
Method: Milling was performed for Examples 1a to 1c using an air jet mill (Equipment code: CP-AJM-01; Promas engineers) with the following parameters: Micronisation was repeated in all examples by performing the air jet milling for a second time using the same parameters. This allowed the particle size D90 to be reduced to less than 10 μm. [table] Four drops of Tween 20 were added to 25 mL of water and the mixture was sonicated for 3 minutes to form the dispersant solution. 0.05 g of milled material was transferred into a 250 mL glass beaker. 25 mL of the dispersant solution (Tween 20/water mixture) was added to the beaker with continuous swirling for 2 to 3 minutes. The suspension was transferred into the measuring unit and the particle size distribution measurements were conducted in triplicate.

[3] = male, New Zealand White, rabbit, plasma, po, 90 mg/kg, enteric coated capsule, 90 mg/kg b.w. oral
[4] = male, New Zealand White, rabbit, plasma, po, 90 mg/kg, non-coated capsule, 90 mg/kg b.w. oral
[5] = male, New Zealand White, rabbit, plasma, po, 90 mg/kg, standard suspension, 90 mg/kg b.w. oral
[6] = male, New Zealand White, rabbit, plasma, po, 90 mg/kg, enteric coated capsule, rabbit plasma (Examples 5, 6, 7)
[7] = male, New Zealand White, rabbit, plasma, po, 90 mg/kg, non-coated capsule, rabbit plasma (Examples 2, 3, 4)
[8] = male, New Zealand White, rabbit, plasma, po, 90 mg/kg, standard suspension (2% w/v methylcellulose), rabbit plasma (Example 8)
[9] = after 1st milling (air jet mill)
[10] = after 2nd milling (air jet mill)

O=C(Nc1nc(=O)n(Cc2ccc(Cl)cc2)s1)c1ccc(Cl)cc1 [Compound 1, 4-Chloro-N-[2-[(4-chlorophenyl)methyl]-3-oxo-1,2,4-thiadiazol-5-yl]benzamide]
Plasma concentration, mean ([1]; 0.16 h, non-coated capsule, 90 mg/kg b.w. oral, rabbit): 0.000 ng/mL
Plasma concentration, mean ([1]; 0.25 h, non-coated capsule, 90 mg/kg b.w. oral, rabbit): 0.000 ng/mL
Plasma concentration, mean ([1]; 0.50 h, non-coated capsule, 90 mg/kg b.w. oral, rabbit): 50.474 ng/mL
Plasma concentration, mean ([1]; 1.00 h, enteric coated capsule, 90 mg/kg b.w. oral, rabbit): 0.000 ng/mL
Plasma concentration, mean ([1]; 1.00 h, non-coated capsule, 90 mg/kg b.w. oral, rabbit): 386.171 ng/mL
Plasma concentration, mean ([1]; 2.00 h, enteric coated capsule, 90 mg/kg b.w. oral, rabbit): 5.857 ng/mL
Plasma concentration, mean ([1]; 2.00 h, non-coated capsule, 90 mg/kg b.w. oral, rabbit): 1530.898 ng/mL
Plasma concentration, mean ([1]; 4.00 h, enteric coated capsule, 90 mg/kg b.w. oral, rabbit): 206.003 ng/mL
Plasma concentration, mean ([1]; 6.00 h, enteric coated capsule, 90 mg/kg b.w. oral, rabbit): 307.917 ng/mL
Plasma concentration, mean ([1]; 6.00 h, non-coated capsule, 90 mg/kg b.w. oral, rabbit): 25336.370 ng/mL
Plasma concentration, mean ([1]; 8.00 h, enteric coated capsule, 90 mg/kg b.w. oral, rabbit): 1505.092 ng/mL
Plasma concentration, mean ([1]; 24.00 h, enteric coated capsule, 90 mg/kg b.w. oral, rabbit): 45705.076 ng/mL
Plasma concentration, mean ([1]; 72.00 h, non-coated capsule, 90 mg/kg b.w. oral, rabbit): 35657.688 ng/mL
AUCextrap ([1]; enteric coated capsule, rabbit plasma (Examples 5, 6, 7)): 82.44 ± 9.84%
concentration at 0 h [1, 3]: 0 ng/mL
concentration at 0 h [1, 4]: 0 ng/mL
concentration at 0 h [1, 5]: 0 ng/mL
concentration at 0.16 h ([1]; male, New Zealand White, rabbit, plasma, po, 90 mg/kg, 0.16 h, enteric coated capsule, 90 mg/kg b.w. oral): 0 ng/mL
concentration at 0.16 h ([1]; male, New Zealand White, rabbit, plasma, po, 90 mg/kg, 0.16 h, standard suspension, 90 mg/kg b.w. oral): 1210 ng/mL
concentration at 0.25 h ([1]; male, New Zealand White, rabbit, plasma, po, 90 mg/kg, 0.25 h, enteric coated capsule, 90 mg/kg b.w. oral): 0 ng/mL
concentration at 0.25 h ([1]; male, New Zealand White, rabbit, plasma, po, 90 mg/kg, 0.25 h, standard suspension, 90 mg/kg b.w. oral): 4420 ng/mL
concentration at 0.5 h ([1]; male, New Zealand White, rabbit, plasma, po, 90 mg/kg, 0.50 h, enteric coated capsule, 90 mg/kg b.w. oral): 0 ng/mL
concentration at 0.5 h ([1]; male, New Zealand White, rabbit, plasma, po, 90 mg/kg, 0.50 h, standard suspension, 90 mg/kg b.w. oral): 7250 ng/mL
concentration at 1 h ([1]; male, New Zealand White, rabbit, plasma, po, 90 mg/kg, 1.00 h, standard suspension, 90 mg/kg b.w. oral): 9390 ng/mL
concentration at 2 h ([1]; male, New Zealand White, rabbit, plasma, po, 90 mg/kg, 2.00 h, standard suspension, 90 mg/kg b.w. oral): 10100 ng/mL
concentration at 4 h ([1]; male, New Zealand White, rabbit, plasma, po, 90 mg/kg, 4.00 h, non-coated capsule, 90 mg/kg b.w. oral): 13400 ng/mL
concentration at 4 h ([1]; male, New Zealand White, rabbit, plasma, po, 90 mg/kg, 4.00 h, standard suspension, 90 mg/kg b.w. oral): 11600 ng/mL
concentration at 6 h ([1]; male, New Zealand White, rabbit, plasma, po, 90 mg/kg, 6.00 h, standard suspension, 90 mg/kg b.w. oral): 139000 ng/mL
concentration at 8 h ([1]; male, New Zealand White, rabbit, plasma, po, 90 mg/kg, 8.00 h, non-coated capsule, 90 mg/kg b.w. oral): 39200 ng/mL
concentration at 8 h ([1]; male, New Zealand White, rabbit, plasma, po, 90 mg/kg, 8.00 h, standard suspension, 90 mg/kg b.w. oral): 28700 ng/mL
concentration at 24 h ([1]; male, New Zealand White, rabbit, plasma, po, 90 mg/kg, 24.00 h, non-coated capsule, 90 mg/kg b.w. oral): 63600 ng/mL
concentration at 24 h ([1]; male, New Zealand White, rabbit, plasma, po, 90 mg/kg, 24.00 h, standard suspension, 90 mg/kg b.w. oral): 18400 ng/mL
concentration at 48 h [1, 3]: 59700 ng/mL
concentration at 48 h [1, 4]: 54800 ng/mL
concentration at 48 h [1, 5]: 8830 ng/mL
concentration at 72 h ([1]; male, New Zealand White, rabbit, plasma, po, 90 mg/kg, 72.00 h, enteric coated capsule, 90 mg/kg b.w. oral): 52300 ng/mL
concentration at 72 h ([1]; male, New Zealand White, rabbit, plasma, po, 90 mg/kg, 72.00 h, standard suspension, 90 mg/kg b.w. oral): 3030 ng/mL
AUC(0-inf) [1, 6]: 18600 ± 12800 µg·h/mL
AUC(0-t) [1, 6]: 2990 ± 666 µg·h/mL
Cmax [1, 6]: 60800 ± 15700 ng/mL
MRT last [1, 6]: 45.2 ± 2.54 h
Tmax [1, 6]: 40 ± 13.9 h
half-life [1, 6]: 252 ± 133 h
AUC(0-inf) [1, 7]: 7390 ± 3870 µg·h/mL
AUC(0-t) [1, 7]: 3450 ± 405 µg·h/mL
Cmax [1, 7]: 63700 ± 3790 ng/mL
MRT last [1, 7]: 36.9 ± 2.56 h
Tmax [1, 7]: 32 ± 13.9 h
half-life [1, 7]: 68.2 ± 43 h
AUC(0-inf) [1, 8]: 1120 µg·h/mL
AUC(0-t) [1, 8]: 952 ± 175 µg·h/mL
Cmax [1, 8]: 31200 ± 11500 ng/mL
MRT last [1, 8]: 25 ± 5 h
Tmax [1, 8]: 19 ± 9 h
half-life [1, 8]: 36 ± 8 h
AUCextrap ([1]; non-coated capsule, rabbit plasma (Examples 2, 3, 4)): 46.71 ± 19.06%
AUCextrap ([1]; standard suspension (2% w/v methylcellulose), rabbit plasma (Example 8)): 14 ± 9%
Particle size distribution D10 [2, 9]: 1.8 μm
Particle size distribution D50 [2, 9]: 5.0 μm
Particle size distribution D90 [2, 9]: 11.4 μm
Particle size distribution D100 [2, 9]: 33.7 μm
Particle size distribution D10 [2, 10]: 1.2 μm
Particle size distribution D50 [2, 10]: 3.7 μm
Particle size distribution D90 [2, 10]: 8.3 μm
Particle size distribution D100 [2, 10]: 21.4 μm
Particle size distribution D10 ([2]; before milling): 13.5 μm
Particle size distribution D50 ([2]; before milling): 28.0 μm
Particle size distribution D90 ([2]; before milling): 55.2 μm
Particle size distribution D100 ([2]; before milling): 187.0 μm
